Source: ChEMBL document CHEMBL4507299, “Data for DCP probe PF-04554878” (2021)
pIC50: −log10 of the molar value.

How the values were obtained:
[1] = biological target: Vascular endothelial growth factor receptor 1 (Homo sapiens, UniProt P17948); assay: Cerep profiling assay (FLT1); parameters: compound concentration 10 uM
[2] = biological target: Tyrosine-protein kinase Lyn (Homo sapiens, UniProt P07948); assay: Cerep profiling assay (LYN); parameters: compound concentration 10 uM
[3] = biological target: Cyclin-dependent kinase 2/cyclin A (Homo sapiens) (UniProt P24941+P20248+P78396); assay: (§1) CDK2/cyclinA Invitrogen kinase activity assay; type: protein-complex assay; details: Compound concentration 1.0 uM
[4] = biological target: Cyclin-dependent kinase 2/cyclin A (Homo sapiens, UniProt P24941); assay: as §1; type: protein-complex assay
[5] = biological target: Casein kinase I isoform delta (Homo sapiens) (UniProt P48730); assay: CKLdelta Invitrogen kinase activity assay; details: Compound concentration 1.0 uM
[6] = biological target: Mitogen-activated protein kinase kinase kinase 9 (Homo sapiens, UniProt P80192); assay: MAP3K9 Invitrogen kinase activity assay
[7] = biological target: NEK kinase (Homo sapiens) (UniProt P51955+Q9HC98+Q8TDX7+Q6P3R8+Q8TD19+Q8NG66+P51956+P51957+Q96PY6+Q86SG6+Q6ZWH5); assay: NEK Invitrogen kinase activity assay; type: protein assay; details: Compound concentration 1.0 uM
[8] = biological target: Serine/threonine-protein kinase PAK 4 (Homo sapiens) (UniProt O96013); assay: PAK4 Invitrogen kinase activity assay; details: Compound concentration 1.0 uM
[9] = biological target: Protein kinase C beta type (Homo sapiens) (UniProt P05771); assay: PKCbeta II Invitrogen kinase activity assay; details: Compound concentration 1.0 uM
[10] = biological target: Protein kinase C zeta type (Homo sapiens) (UniProt Q05513); assay: PKCzeta Invitrogen kinase activity assay; details: Compound concentration 1.0 uM
[11] = biological target: Rho-associated protein kinase 1 (Homo sapiens) (UniProt Q13464); assay: ROCK1 Invitrogen kinase activity assay; details: Compound concentration 1.0 uM
[12] = test system: Tyrosine-protein kinase ABL1 (Homo sapiens), P00519 [T315I]
[13] = biological target: Atypical kinase COQ8B, mitochondrial (Homo sapiens) (UniProt Q96D53)
[14] = biological target: RAC-alpha serine/threonine-protein kinase (Homo sapiens) (UniProt P31749)
[15] = biological target: Bone morphogenetic protein receptor type-1A (Homo sapiens) (UniProt P36894)
Sequence of Bone morphogenetic protein receptor type-1A (Homo sapiens) (P36894 whole entry): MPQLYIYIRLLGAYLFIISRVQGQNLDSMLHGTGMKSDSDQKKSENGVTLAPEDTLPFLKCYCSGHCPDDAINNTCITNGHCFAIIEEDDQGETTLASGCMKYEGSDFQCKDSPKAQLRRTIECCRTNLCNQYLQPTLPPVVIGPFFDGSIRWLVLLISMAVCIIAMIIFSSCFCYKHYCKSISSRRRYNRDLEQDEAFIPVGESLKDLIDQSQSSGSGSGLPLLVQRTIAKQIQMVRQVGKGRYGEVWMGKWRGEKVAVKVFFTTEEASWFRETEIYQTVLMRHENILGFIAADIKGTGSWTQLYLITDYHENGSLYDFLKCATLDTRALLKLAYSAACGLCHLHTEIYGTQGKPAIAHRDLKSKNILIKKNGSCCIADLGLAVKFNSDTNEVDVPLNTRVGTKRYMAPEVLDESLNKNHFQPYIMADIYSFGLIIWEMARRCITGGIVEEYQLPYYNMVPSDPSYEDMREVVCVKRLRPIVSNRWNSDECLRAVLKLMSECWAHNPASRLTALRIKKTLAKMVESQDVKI

[16] = biological target: Calcium/calmodulin-dependent protein kinase type II subunit alpha (Homo sapiens) (UniProt Q9UQM7)
[17] = biological target: Calcium/calmodulin-dependent protein kinase type IV (Homo sapiens) (UniProt Q16566)
Sequence of Calcium/calmodulin-dependent protein kinase type IV (Homo sapiens) (Q16566 whole entry): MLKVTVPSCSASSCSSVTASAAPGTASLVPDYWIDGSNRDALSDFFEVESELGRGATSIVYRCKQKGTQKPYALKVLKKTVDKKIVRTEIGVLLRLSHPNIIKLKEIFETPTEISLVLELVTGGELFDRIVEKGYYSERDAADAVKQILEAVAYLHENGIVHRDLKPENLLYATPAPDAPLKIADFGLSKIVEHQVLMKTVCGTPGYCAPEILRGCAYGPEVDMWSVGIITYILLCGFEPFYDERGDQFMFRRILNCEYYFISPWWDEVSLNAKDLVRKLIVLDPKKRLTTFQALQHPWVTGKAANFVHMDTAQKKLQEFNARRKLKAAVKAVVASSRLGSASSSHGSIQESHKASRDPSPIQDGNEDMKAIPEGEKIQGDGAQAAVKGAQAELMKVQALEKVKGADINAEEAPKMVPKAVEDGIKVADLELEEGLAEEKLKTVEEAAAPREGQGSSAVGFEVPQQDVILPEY

[18] = biological target: Cyclin-dependent kinase-like 3 (Homo sapiens) (UniProt Q8IVW4)
[19] = biological target: Macrophage colony-stimulating factor 1 receptor (Homo sapiens) (UniProt P07333)
[20] = biological target: Serine/threonine-protein kinase DCLK2 (Homo sapiens) (UniProt Q8N568)
[21] = biological target: Dual specificity tyrosine-phosphorylation-regulated kinase 1A (Homo sapiens) (UniProt Q13627)
[22] = biological target: Receptor tyrosine-protein kinase erbB-2 (Homo sapiens) (UniProt P04626)
Sequence of Receptor tyrosine-protein kinase erbB-2 (Homo sapiens) (P04626 whole entry): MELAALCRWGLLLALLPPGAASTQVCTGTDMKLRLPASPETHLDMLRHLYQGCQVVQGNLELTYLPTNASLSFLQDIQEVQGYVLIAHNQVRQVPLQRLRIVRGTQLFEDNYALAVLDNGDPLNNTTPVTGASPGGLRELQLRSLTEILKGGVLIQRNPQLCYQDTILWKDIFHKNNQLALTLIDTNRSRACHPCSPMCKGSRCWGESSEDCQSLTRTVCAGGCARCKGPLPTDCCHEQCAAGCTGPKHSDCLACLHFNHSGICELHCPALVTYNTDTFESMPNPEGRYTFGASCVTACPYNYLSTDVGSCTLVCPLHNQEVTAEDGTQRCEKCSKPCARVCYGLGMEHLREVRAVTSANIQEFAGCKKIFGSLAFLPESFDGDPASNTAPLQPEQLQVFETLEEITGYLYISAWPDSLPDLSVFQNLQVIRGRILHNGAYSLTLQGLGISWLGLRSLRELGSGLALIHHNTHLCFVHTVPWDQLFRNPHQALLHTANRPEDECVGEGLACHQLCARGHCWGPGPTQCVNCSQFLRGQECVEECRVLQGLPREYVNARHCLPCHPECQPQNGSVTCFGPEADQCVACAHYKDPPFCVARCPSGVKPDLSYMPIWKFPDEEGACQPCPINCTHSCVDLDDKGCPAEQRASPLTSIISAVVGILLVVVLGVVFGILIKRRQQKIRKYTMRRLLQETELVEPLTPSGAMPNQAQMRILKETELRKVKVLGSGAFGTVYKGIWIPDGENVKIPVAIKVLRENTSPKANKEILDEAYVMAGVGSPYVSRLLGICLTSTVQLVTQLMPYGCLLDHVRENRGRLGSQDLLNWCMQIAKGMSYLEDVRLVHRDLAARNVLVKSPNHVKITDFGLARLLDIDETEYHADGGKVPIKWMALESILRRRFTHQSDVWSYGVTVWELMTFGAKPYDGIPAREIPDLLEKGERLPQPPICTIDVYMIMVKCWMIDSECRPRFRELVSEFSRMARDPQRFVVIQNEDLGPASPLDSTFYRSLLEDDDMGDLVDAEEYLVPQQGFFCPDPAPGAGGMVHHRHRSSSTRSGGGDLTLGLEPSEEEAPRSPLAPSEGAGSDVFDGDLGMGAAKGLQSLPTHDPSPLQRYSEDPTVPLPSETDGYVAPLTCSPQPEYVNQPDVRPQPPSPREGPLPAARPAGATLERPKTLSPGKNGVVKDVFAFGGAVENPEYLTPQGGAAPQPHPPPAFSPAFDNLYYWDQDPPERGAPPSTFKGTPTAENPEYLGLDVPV

[23] = biological target: Mitogen-activated protein kinase 6 (Homo sapiens) (UniProt Q16659)
[24] = biological target: Fibroblast growth factor receptor 3 (Homo sapiens) (UniProt P22607)
Sequence of Fibroblast growth factor receptor 3 (Homo sapiens) (P22607 23-806 limits assumed): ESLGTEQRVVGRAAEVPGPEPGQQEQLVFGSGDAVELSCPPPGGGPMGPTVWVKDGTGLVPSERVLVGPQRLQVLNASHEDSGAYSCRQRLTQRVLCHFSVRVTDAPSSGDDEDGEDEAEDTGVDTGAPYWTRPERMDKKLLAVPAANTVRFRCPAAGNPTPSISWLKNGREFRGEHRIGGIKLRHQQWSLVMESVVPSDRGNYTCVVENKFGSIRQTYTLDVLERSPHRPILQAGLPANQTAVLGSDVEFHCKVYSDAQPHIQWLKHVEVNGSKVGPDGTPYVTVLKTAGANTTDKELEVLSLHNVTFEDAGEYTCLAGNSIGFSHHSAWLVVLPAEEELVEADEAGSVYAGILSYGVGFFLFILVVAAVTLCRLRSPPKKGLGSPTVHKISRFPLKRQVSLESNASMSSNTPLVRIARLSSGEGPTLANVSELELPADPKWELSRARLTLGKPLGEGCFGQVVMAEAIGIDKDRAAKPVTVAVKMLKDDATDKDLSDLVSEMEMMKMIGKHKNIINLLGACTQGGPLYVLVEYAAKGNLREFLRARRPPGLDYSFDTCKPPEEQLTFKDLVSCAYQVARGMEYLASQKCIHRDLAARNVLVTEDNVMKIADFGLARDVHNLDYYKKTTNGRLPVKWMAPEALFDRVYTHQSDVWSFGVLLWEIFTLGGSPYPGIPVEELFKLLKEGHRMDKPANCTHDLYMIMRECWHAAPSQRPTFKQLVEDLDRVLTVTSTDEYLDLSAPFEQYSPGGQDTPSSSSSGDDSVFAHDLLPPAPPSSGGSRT

[25] = biological target: Receptor-type tyrosine-protein kinase FLT3 (Homo sapiens) (UniProt P36888)
[26] = biological target: Cyclin-G-associated kinase (Homo sapiens) (UniProt O14976)
[27] = biological target: Glycogen synthase kinase-3 beta (Homo sapiens, UniProt P49841)
Sequence of Glycogen synthase kinase-3 beta (P49841 whole entry, looked up): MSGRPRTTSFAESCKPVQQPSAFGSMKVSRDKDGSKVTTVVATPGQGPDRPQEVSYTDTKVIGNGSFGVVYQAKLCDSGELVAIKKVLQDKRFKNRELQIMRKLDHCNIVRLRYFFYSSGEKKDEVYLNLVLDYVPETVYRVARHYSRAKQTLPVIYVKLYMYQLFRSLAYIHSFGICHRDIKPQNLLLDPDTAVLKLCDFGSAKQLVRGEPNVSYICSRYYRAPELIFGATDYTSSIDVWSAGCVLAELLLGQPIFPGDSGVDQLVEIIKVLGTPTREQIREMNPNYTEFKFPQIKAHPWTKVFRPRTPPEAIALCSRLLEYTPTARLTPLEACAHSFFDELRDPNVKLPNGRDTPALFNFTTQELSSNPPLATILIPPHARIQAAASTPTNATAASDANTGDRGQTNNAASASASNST

[28] = biological target: Serine/threonine-protein kinase LATS1 (Homo sapiens) (UniProt O95835)
[29] = biological target: MAP/microtubule affinity-regulating kinase 4 (Homo sapiens) (UniProt Q96L34)
[30] = biological target: Serine/threonine-protein kinase 38 (Homo sapiens) (UniProt Q15208)
[31] = biological target: Platelet-derived growth factor receptor alpha (Homo sapiens) (UniProt P16234)
[32] = biological target: Serine/threonine-protein kinase PLK2 (Homo sapiens) (UniProt Q9NYY3)
Sequence of Serine/threonine-protein kinase PLK2 (Homo sapiens) (Q9NYY3 whole entry, looked up): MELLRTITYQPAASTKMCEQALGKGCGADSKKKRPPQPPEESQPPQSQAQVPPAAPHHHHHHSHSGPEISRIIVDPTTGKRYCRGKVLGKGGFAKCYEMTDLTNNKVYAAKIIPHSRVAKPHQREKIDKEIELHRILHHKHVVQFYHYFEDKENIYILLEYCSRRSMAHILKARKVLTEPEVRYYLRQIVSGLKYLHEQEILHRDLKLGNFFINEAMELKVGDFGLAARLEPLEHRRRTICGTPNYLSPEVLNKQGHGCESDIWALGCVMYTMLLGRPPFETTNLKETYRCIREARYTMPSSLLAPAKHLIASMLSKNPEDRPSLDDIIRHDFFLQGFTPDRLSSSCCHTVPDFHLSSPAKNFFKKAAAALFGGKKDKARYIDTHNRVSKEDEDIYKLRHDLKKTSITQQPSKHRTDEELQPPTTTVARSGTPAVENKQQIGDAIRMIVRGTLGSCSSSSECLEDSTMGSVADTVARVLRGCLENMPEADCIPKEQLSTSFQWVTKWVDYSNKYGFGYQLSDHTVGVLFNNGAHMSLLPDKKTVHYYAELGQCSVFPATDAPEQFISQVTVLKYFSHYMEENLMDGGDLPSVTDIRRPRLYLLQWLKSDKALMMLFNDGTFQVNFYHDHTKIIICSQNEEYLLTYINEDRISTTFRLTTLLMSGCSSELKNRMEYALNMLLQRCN

[33] = biological target: RAF proto-oncogene serine/threonine-protein kinase (Homo sapiens) (UniProt P04049)
[34] = biological target: Ribosomal protein S6 kinase alpha-5 (Homo sapiens) (UniProt O75582)
[35] = biological target: Ribosomal protein S6 kinase alpha-6 (Homo sapiens) (UniProt Q9UK32)
[36] = biological target: Serine/threonine-protein kinase Sgk3 (Homo sapiens) (UniProt Q96BR1)
[37] = biological target: SNF-related serine/threonine-protein kinase (Homo sapiens) (UniProt Q9NRH2)
[38] = biological target: SRSF protein kinase 3 (Homo sapiens) (UniProt Q9UPE1)
[39] = biological target: STE20/SPS1-related proline-alanine-rich protein kinase (Homo sapiens) (UniProt Q9UEW8)
[40] = biological target: Angiopoietin-1 receptor (Homo sapiens) (UniProt Q02763)
[41] = biological target: TRAF2 and NCK-interacting protein kinase (Homo sapiens) (UniProt Q9UKE5)
[42] = biological target: Tyrosine-protein kinase receptor TYRO3 (Homo sapiens) (UniProt Q06418)
[43] = biological target: Mitogen-activated protein kinase kinase kinase 20 (Homo sapiens) (UniProt Q9NYL2)
Sequence of Mitogen-activated protein kinase kinase kinase 20 (Homo sapiens) (Q9NYL2 2-800 limits assumed): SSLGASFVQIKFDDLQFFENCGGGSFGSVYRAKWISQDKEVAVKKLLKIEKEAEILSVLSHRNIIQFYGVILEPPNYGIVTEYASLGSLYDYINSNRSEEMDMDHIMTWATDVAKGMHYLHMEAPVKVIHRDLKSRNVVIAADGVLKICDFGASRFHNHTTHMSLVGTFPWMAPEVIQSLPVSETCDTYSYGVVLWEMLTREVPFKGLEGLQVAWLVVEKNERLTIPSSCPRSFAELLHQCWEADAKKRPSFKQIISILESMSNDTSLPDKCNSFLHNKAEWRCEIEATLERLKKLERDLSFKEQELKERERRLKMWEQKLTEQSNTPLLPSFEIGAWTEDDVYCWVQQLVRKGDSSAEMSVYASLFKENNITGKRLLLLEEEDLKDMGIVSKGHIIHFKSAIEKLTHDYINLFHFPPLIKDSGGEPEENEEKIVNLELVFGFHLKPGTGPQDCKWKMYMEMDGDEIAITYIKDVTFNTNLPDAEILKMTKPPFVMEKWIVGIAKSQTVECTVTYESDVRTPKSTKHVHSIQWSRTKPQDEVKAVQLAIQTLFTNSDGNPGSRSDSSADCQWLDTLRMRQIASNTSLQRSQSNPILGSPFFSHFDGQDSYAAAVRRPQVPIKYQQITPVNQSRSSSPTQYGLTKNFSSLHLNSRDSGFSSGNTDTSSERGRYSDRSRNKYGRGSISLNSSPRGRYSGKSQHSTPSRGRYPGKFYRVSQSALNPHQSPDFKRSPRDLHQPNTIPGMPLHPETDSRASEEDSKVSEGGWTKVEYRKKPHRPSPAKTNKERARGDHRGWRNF

[44] = biological target: 5-hydroxytryptamine receptor 1E (Homo sapiens) (UniProt P28566); details: Compound concentration 10.0 uM
[45] = biological target: High affinity nerve growth factor receptor (Homo sapiens) (UniProt P04629); details: Compound concentration 1.0 uM
[46] = Compound concentration 100.0 nM
[47] = Compound concentration 1000.0 nM

CNC(=O)c1ccc(Nc2ncc(C(F)(F)F)c(NCc3nccnc3N(C)S(C)(=O)=O)n2)cc1 [DEFACTINIB]
IC50 [1]: 2500 nM (not active)
IC50 [2]: 1100 nM (not active)
inhibition [3]: 72%
pIC50 [4]: 6.46
inhibition [5]: 27%
pIC50 [6]: 7.12
inhibition ([6]; Compound concentration 1.0 uM): 98%
inhibition [7]: 12%
inhibition [8]: 69%
inhibition [9]: 15%
inhibition [10]: 10%
inhibition [11]: 20%
residual activity [12, 46]: 93%
residual activity [13, 46]: 88%
residual activity [14, 46]: 100%
residual activity [15, 46]: 100%
residual activity [16, 46]: 83%
residual activity [17, 46]: 100%
residual activity [18, 46]: 92%
residual activity [19, 46]: 100%
residual activity [20, 46]: 71%
residual activity [21, 46]: 71%
residual activity [22, 46]: 100%
residual activity [23, 46]: 71%
residual activity [24, 46]: 78%
residual activity [25, 46]: 74%
residual activity [26, 46]: 69%
residual activity [27, 46]: 87%
residual activity [28, 46]: 96%
residual activity [29, 46]: 83%
residual activity [30, 46]: 86%
residual activity [31, 46]: 77%
residual activity [32, 46]: 77%
residual activity [33, 46]: 97%
residual activity [34, 46]: 81%
residual activity [35, 46]: 70%
residual activity [36, 46]: 85%
residual activity [37, 46]: 100%
residual activity [38, 46]: 100%
residual activity [39, 46]: 100%
residual activity [40, 46]: 69%
residual activity [41, 46]: 65%
residual activity [42, 46]: 100%
residual activity [43, 46]: 100%
inhibition [44]: 18.2%
inhibition [45]: 97%

CN(c1ccnc(CNc2nc(Nc3ccc4c(c3)CC(=O)N4)ncc2C(F)(F)F)n1)S(C)(=O)=O [PF-00911705]
residual activity [12, 47]: 36%
residual activity [13, 47]: 84%
residual activity [14, 47]: 100%
residual activity [15, 47]: 89%
residual activity [16, 47]: 67%
residual activity [17, 47]: 100%
residual activity [18, 47]: 78%
residual activity [19, 47]: 100%
residual activity [20, 47]: 90%
residual activity [21, 47]: 19%
residual activity [22, 47]: 100%
residual activity [23, 47]: 66%
residual activity [24, 47]: 71%
residual activity [25, 47]: 64%
residual activity [26, 47]: 66%
residual activity [27, 47]: 57%
residual activity [28, 47]: 51%
residual activity [29, 47]: 63%
residual activity [30, 47]: 65%
residual activity [31, 47]: 58%
residual activity [32, 47]: 0.5%
residual activity [33, 47]: 85%
residual activity [34, 47]: 96%
residual activity [35, 47]: 4.6%
residual activity [36, 47]: 87%
residual activity [37, 47]: 85%
residual activity [38, 47]: 11%
residual activity [39, 47]: 100%
residual activity [40, 47]: 50%
residual activity [41, 47]: 77%
residual activity [42, 47]: 99%
residual activity [43, 47]: 100%
